{
  "source": "ChEMBL document CHEMBL5523716",
  "about": "“Discovery of novel EGFR-PROTACs capable of degradation of multiple EGFR-mutated proteins” (Eur J Med Chem, 2024)",
  "key": {"HCC827 [1]": {"system": "HCC827", "assay": "Antiproliferative activity against human HCC827 cells harboring EGFR Del19 mutant assessed as inhibition of cell growth incubated for 48 to 72 hrs by CCK-8 assay", "type": "functional, cell-based"}, "[2]": {"assay": "Antiproliferative activity against human H1975-TM cells harboring EGFR L858R/T790M/C797S mutant assessed as inhibition of cell growth incubated for 48 to 72 hrs by CCK-8 assay", "type": "functional, cell-based"}, "A549": {"system": "A549", "assay": "Antiproliferative activity against human A549 cells harboring EGFR wild type assessed as inhibition of cell growth incubated for 48 to 72 hrs by CCK-8 assay", "type": "functional, cell-based"}, "[3]": {"assay": "Metabolic stability in human liver microsomes assessed as elimination rate constant at 1 uM incubated upto 60 mins in presence of NADPH by LC-MS/MS analysis", "type": "ADME, Microsome"}, "[4]": {"assay": "Metabolic stability in mouse liver microsomes assessed as elimination rate constant at 1 uM incubated upto 60 mins in presence of NADPH by LC-MS/MS analysis", "type": "ADME, Microsome"}, "[5]": {"assay": "Metabolic stability in monkey liver microsomes assessed as half-life at 1 uM incubated upto 60 mins in presence of NADPH by LC-MS/MS analysis", "type": "ADME, Macaca mulatta, Microsome", "conditions": "rhesus monkey"}, "[6]": {"assay": "Metabolic stability in rat liver microsomes assessed as half-life at 1 uM incubated upto 60 mins in presence of NADPH by LC-MS/MS analysis", "type": "ADME, Microsome"}, "[7]": {"assay": "Metabolic stability in mouse liver microsomes assessed as half-life at 1 uM incubated upto 60 mins in presence of NADPH by LC-MS/MS analysis", "type": "ADME, Microsome"}, "[8]": {"assay": "Metabolic stability in monkey liver microsomes assessed as intrinsic clearance at 1 uM incubated upto 60 mins in presence of NADPH by LC-MS/MS analysis", "type": "ADME, Macaca mulatta, Microsome", "conditions": "rhesus monkey, read-out: CLH"}, "[9]": {"assay": "Metabolic stability in mouse liver microsomes assessed as intrinsic clearance at 1 uM incubated upto 60 mins in presence of NADPH by LC-MS/MS analysis", "type": "ADME, Microsome", "conditions": "read-out: CLH"}, "[10]": {"assay": "Half life in SPF ICR mouse at 2 mg/kg,iv measured upto 24 hrs by LC-MS/MS analysis", "type": "ADME, organism-based", "conditions": "in vivo"}, "[11]": {"assay": "Half life in SPF ICR mouse at 5 mg/kg,ip measured upto 24 hrs by LC-MS/MS analysis", "type": "ADME, organism-based", "conditions": "in vivo"}, "[12]": {"assay": "Tmax in SPF ICR mouse at 2 mg/kg,iv measured upto 24 hrs by LC-MS/MS analysis", "type": "ADME, organism-based", "conditions": "in vivo"}, "[13]": {"assay": "Tmax in SPF ICR mouse at 5 mg/kg,ip measured upto 24 hrs by LC-MS/MS analysis", "type": "ADME, organism-based", "conditions": "in vivo"}, "[14]": {"assay": "AUC (0 to t) in SPF ICR mouse at 2 mg/kg,iv measured upto 24 hrs by LC-MS/MS analysis", "type": "ADME, organism-based", "conditions": "in vivo"}, "[15]": {"assay": "MRT (0 to infinity) in SPF ICR mouse at 2 mg/kg,iv measured upto 24 hrs by LC-MS/MS analysis", "type": "ADME, organism-based", "conditions": "in vivo"}, "[16]": {"assay": "MRT (0 to infinity) in SPF ICR mouse at 5 mg/kg,ip measured upto 24 hrs by LC-MS/MS analysis", "type": "ADME, organism-based", "conditions": "in vivo"}, "[17]": {"system": "von Hippel-Lindau disease tumor suppressor/Epidermal growth factor receptor (Homo sapiens), P00533+P40337 [UNDEFINED MUTATION]", "assay": "PROTAC activity at VHL/EGFR Del19 mutant in human HCC827 cells assessed as maximal EGFR degradation at 1.56 to 100 nM incubated for 72 hrs by Western blot analysis relative to control", "type": "cell-based", "conditions": "dose 1.56-100 nM"}, "[18]": {"system": "von Hippel-Lindau disease tumor suppressor/Epidermal growth factor receptor (Homo sapiens), P00533+P40337 [UNDEFINED MUTATION]", "assay": "PROTAC activity at VHL/EGFR Del19 mutant in human HCC827 cells assessed as downregulation of ERK phosphorylation incubated for 72 hrs by Western blot analysis", "type": "cell-based"}, "[19]": {"system": "von Hippel-Lindau disease tumor suppressor/Epidermal growth factor receptor (Homo sapiens), P00533+P40337 [L858R,T790M]", "assay": "PROTAC activity at VHL/EGFR L858R/T790M mutant in human NCI-H1975 cells assessed as downregulation of AKT phosphorylation incubated for 72 hrs by Western blot analysis", "type": "cell-based"}, "[20]": {"system": "von Hippel-Lindau disease tumor suppressor/Epidermal growth factor receptor (Homo sapiens), P00533+P40337 [L858R,T790M,C797S]", "assay": "PROTAC activity at VHL/EGFR L858R/T790M/C797S mutant in human H1975-TM cells assessed as downregulation of ERK phosphorylation incubated for 48 hrs by Western blot analysis", "type": "cell-based"}, "[21]": {"system": "von Hippel-Lindau disease tumor suppressor/Epidermal growth factor receptor (Homo sapiens), P00533+P40337 [L858R,T790M]", "assay": "PROTAC activity at VHL/EGFR L858R/T790M mutant in human NCI-H1975 cells assessed as induction of EGFR degradation at 2 uM by Western blot analysis", "type": "cell-based", "conditions": "TDE = time-dependent effect"}, "[22]": {"system": "von Hippel-Lindau disease tumor suppressor/Epidermal growth factor receptor (Homo sapiens), P00533+P40337 [L858R,T790M]", "assay": "PROTAC activity at VHL/EGFR L858R/T790M mutant in human NCI-H1975 cells assessed as induction of EGFR degradation at 2 uM incubated for 8 hr by Western blot analysis", "type": "cell-based"}, "[23]": {"system": "von Hippel-Lindau disease tumor suppressor/Epidermal growth factor receptor (Homo sapiens), P00533+P40337 [L858R,T790M]", "assay": "PROTAC activity at VHL/EGFR L858R/T790M mutant in human NCI-H1975 cells assessed as induction of EGFR degradation at 100 nM preincubated with MG-132 for 6 hrs followed by compound treatment for 48 hrs by Western blot analysis", "type": "cell-based"}, "HCC827 [24]": {"system": "HCC827", "assay": "Antitumor activity against human HCC827 cells xenografted in BALB/c mouse assessed as tumor growth inhibition at 1.25 mg/kg,ip once daily for 28 days relative to control", "type": "functional", "conditions": "HCC827, 672 h, time 28 day, read-out: TGI"}, "HCC827 [25]": {"system": "HCC827", "assay": "Antitumor activity against human HCC827 cells xenografted in BALB/c mouse assessed as tumor growth inhibition at 5 mg/kg,ip once daily for 28 days relative to control", "type": "functional", "conditions": "HCC827, 672 h, time 28 day, read-out: TGI"}, "[26]": {"assay": "Toxicity in BALB/c mouse xenografted with human HCC827 cells assessed as change in body weight at 1.25 to 5 mg/kg,ip once daily for 28 days", "type": "organism-based", "conditions": "in vivo, 672 h, dose 1.25-5 mg/kg, time 28 day"}, "HCC827 [27]": {"system": "HCC827", "assay": "Antitumor activity against human HCC827 cells xenografted in BALB/c mouse assessed as increase in EGFR degradation in tumor at 1.25 to 5 mg/kg,ip once daily for 28 days by Western blot analysis", "type": "functional, organism-based", "conditions": "dose 1.25-5 mg/kg, time 28.0 day"}, "[28]": {"assay": "Antitumor activity against human H1975-TM cells xenografted in BALB/c mouse assessed as tumor growth inhibition at 5 mg/kg,ip once daily for 14 days relative to control", "type": "functional", "conditions": "336 h, time 14 day, read-out: TGI"}, "H1975-TM [29]": {"system": "H1975-TM", "assay": "Antitumor activity against human H1975-TM cells xenografted in BALB/c mouse assessed as increase in EGFR degradation in tumor at 5 to 20 mg/kg,ip once daily for 14 days by Western blot analysis", "type": "functional, organism-based", "conditions": "dose 5-20 mg/kg, time 14.0 day"}, "H1975-TM [30]": {"system": "H1975-TM", "assay": "Antitumor activity against human H1975-TM cells xenografted in BALB/c mouse assessed as downregulation of EGFR phosphorylation in tumor at 5 to 20 mg/kg,ip once daily for 14 days by Western blot analysis", "type": "functional, organism-based", "conditions": "dose 5-20 mg/kg, time 14.0 day"}, "[31]": {"target": "Voltage-gated inwardly rectifying potassium channel KCNH2 (Homo sapiens, UniProt Q12809)", "sequence (Q12809 whole entry)": "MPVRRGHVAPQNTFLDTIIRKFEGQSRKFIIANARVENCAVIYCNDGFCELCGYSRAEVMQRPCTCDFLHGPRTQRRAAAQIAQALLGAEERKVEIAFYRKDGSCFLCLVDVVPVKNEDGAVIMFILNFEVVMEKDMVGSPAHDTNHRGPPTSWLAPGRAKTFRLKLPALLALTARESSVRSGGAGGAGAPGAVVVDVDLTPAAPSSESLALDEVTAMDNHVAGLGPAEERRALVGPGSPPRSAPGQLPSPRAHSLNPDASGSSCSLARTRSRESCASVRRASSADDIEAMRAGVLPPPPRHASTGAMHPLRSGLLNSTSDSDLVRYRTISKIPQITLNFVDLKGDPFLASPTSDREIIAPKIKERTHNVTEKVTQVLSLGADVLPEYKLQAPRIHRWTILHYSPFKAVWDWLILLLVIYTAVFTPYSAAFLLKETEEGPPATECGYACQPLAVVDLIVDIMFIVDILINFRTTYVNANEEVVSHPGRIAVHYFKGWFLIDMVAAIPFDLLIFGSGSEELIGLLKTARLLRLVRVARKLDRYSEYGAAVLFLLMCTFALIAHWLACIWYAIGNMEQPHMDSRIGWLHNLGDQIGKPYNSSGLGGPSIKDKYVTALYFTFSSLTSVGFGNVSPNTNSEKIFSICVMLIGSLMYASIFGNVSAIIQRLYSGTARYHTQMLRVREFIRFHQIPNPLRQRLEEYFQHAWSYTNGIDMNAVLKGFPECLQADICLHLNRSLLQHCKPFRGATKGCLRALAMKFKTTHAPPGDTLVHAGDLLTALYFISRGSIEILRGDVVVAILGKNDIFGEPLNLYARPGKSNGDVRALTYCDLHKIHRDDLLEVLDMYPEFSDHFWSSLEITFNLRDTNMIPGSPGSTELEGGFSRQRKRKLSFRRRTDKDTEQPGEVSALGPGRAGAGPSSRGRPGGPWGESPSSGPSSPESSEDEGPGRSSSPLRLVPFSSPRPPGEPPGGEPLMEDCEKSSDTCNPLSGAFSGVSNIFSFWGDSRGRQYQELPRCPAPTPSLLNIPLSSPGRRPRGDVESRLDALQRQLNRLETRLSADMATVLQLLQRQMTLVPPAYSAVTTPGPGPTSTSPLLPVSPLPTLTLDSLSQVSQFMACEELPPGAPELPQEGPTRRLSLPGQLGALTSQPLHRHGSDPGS", "assay": "Inhibition of hERG expressed in CHO cells at 0.3 to 30 uM incubated for 24 to 48 hrs by voltage clamp electrophysiology", "type": "toxicity, cell-based", "conditions": "dose lower 0.3 µM, time lower 24 hrs, dose upper 30 µM, time upper 48 hrs"}},
  "note": "Activity calls are given as the source filed them. The rule behind the calls is not given here.",
  "data": [
    {"smiles": "CCN(CC)C/C=C/C(=O)Nc1cc2c(Nc3ccc(F)c(Cl)c3)ncnc2cc1OCc1cn(CCCCCCCC(=O)N[C@H](C(=O)N2C[C@H](O)C[C@H]2C(=O)N[C@H](C)c2ccc(-c3scnc3C)cc2)C(C)(C)C)nn1", "values": [
      {"measurement": "IC50", "setting": "HCC827 [1]", "result": 0.009, "unit": "µM"},
      {"measurement": "IC50", "setting": "[2]", "result": 3.24, "unit": "µM"},
      {"measurement": "IC50", "setting": "A549", "result": "> 20", "unit": "µM"},
      {"measurement": "k el at 1 h, 1 µM", "setting": "[3]", "result": 0.0007, "unit": "s⁻¹"},
      {"measurement": "k el at 1 h, 1 µM", "setting": "[4]", "result": 0.0001, "unit": "s⁻¹"},
      {"measurement": "half-life at 1 µM", "setting": "[5]", "result": 0.632, "unit": "h"},
      {"measurement": "half-life at 1 µM", "setting": "[6]", "result": 3.12, "unit": "h"},
      {"measurement": "half-life at 1 µM", "setting": "[7]", "result": 1.95, "unit": "h"},
      {"measurement": "microsomal CLint at 1 µM", "setting": "[8]", "result": 36.6, "unit": "µL/min/mg"},
      {"measurement": "microsomal CLint at 1 µM", "setting": "[9]", "result": 11.8, "unit": "µL/min/mg"},
      {"measurement": "half-life", "setting": "[10]", "result": 1.67, "unit": "h"},
      {"measurement": "half-life", "setting": "[11]", "result": 0.96, "unit": "h"},
      {"measurement": "Tmax", "setting": "[12]", "result": 4.8, "unit": "min"},
      {"measurement": "Tmax", "setting": "[13]", "result": 2, "unit": "h"},
      {"measurement": "AUC(0-t) at 24 h", "setting": "[14]", "result": 2350, "unit": "ng·h/mL"},
      {"measurement": "MRT inf", "setting": "[15]", "result": 0.34, "unit": "h"},
      {"measurement": "MRT inf", "setting": "[16]", "result": 2.89, "unit": "h"},
      {"measurement": "Emax", "setting": "[17]", "result": 100, "unit": "%"},
      {"measurement": "Activity", "setting": "[18]", "result": "Dose-Dependent Effect"},
      {"measurement": "Activity", "setting": "[19]", "result": "Dose-Dependent Effect"},
      {"measurement": "Activity", "setting": "[20]", "result": "Dose-Dependent Effect"},
      {"measurement": "Activity", "setting": "[21]", "result": "Tde"},
      {"measurement": "Activity", "setting": "[22]", "result": 83, "unit": "%"},
      {"measurement": "Activity", "setting": "[23]", "result": "inactive"},
      {"measurement": "inhibition in vivo at 1.25 mg/kg", "setting": "HCC827 [24]", "result": 41, "unit": "%"},
      {"measurement": "inhibition in vivo at 5 mg/kg", "setting": "HCC827 [25]", "result": 88, "unit": "%"},
      {"measurement": "Activity", "setting": "[26]", "result": "Non-Toxic"},
      {"measurement": "Activity", "setting": "HCC827 [27]", "result": "Active"},
      {"measurement": "inhibition in vivo at 5 mg/kg", "setting": "[28]", "result": 24, "unit": "%"},
      {"measurement": "Activity", "setting": "H1975-TM [29]", "result": "Active"},
      {"measurement": "Activity", "setting": "H1975-TM [30]", "result": "Active"},
      {"measurement": "inhibition (INH)", "setting": "[31]", "result": "Not Active"}
    ]}
  ]
}
